The results in this text go back to US20260258010A1, “THIOPHENE-2-CARBOXYLIC ACID DERIVATIVE, AND PREPARATION METHOD THEREFOR AND MEDICAL USE THEREOF” (CHINA PHARMACEUTICAL UNIVERSITY, priority 2023, published 2026).

For test [1], the system named is acute peritonitis model. The experiment in a line: LPS-induced acute peritonitis model, inflammatory factors in peritoneal fluids. The conditions noted are these: 5, 10 and 20 mg/kg by intraarticular injection, male ICR mice, 6 h after injection, vs model control, FIGS. 6-8. The test is classed as in vivo. How it is done: Male clean-grade ICR mice were housed with free access to water and food, and with illumination for 12 h every day at an ambient temperature of 25±2° C. The animals were divided into several groups, that is, a normal control group, a model control group, and administration groups (test compound and dexamethasone). An acute peritonitis model was induced by a single intraperitoneal injection of LSP, while an equal volume of physiological saline was injected into the joint cavity in the normal control group. Each administration group was given test compound 5 (5 mg/kg, 10 mg/kg, and 20 mg/kg) and dexamethasone (10 mg/kg) by intraarticular injection. 6 h after the injection, 8 mL of PBS was injected, and the peritoneal cavity fluids were collected.

The target of test [2] is T1, P2Y14 receptor (Homo sapiens, UniProt Q15391).
T1 construct: expressed in transfected cells; host or cells: HEK293
T1 sequence (Q15391 1-338): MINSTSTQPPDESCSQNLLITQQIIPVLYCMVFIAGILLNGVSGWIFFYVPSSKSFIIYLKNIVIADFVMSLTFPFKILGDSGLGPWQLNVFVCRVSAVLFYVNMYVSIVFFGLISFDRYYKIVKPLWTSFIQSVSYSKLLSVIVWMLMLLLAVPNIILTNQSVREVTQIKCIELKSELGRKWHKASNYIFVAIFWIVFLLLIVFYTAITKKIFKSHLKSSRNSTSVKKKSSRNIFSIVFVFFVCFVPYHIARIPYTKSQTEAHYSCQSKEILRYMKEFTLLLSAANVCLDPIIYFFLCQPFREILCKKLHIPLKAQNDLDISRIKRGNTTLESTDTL
The experiment in a line: cAMP inhibition assay in HEK293 cells stably transfected with the P2Y14 receptor (UDPG-stimulated, cAMP Glo). The test is classed as cell-based. Conditions: 100 nM compound; HEK293 stably transfected with P2Y14 receptor; 30 μM Forskolin, 1 μM UDPG, 4 h; inhibition rate from cAMP content; read-out: Inhibition @ 100 nM. Here is the method:
An HEK293 cell strain stably transfected with the P2Y14 receptor was cultured in a DMEM culture medium (containing […], 100 U/mL penicillin, and 100 μg/mL streptomycin). Before the experiment, the cells were seeded into a culture plate at a density of 1×10^5 cells/well, and a serum-free culture medium was used instead. The cells were cultured at 37° C. with […] and 5% CO2 humidity. IBMX was added to inhibit the activity of PDEs, thereby ensuring a relatively high level of cAMP. The AC agonist Forskolin (30 μM) was adopted to stimulate the production of cellular cAMP. Test compounds at different concentrations (0.01 nm, 0.1 nm, 1 nm, 10 nm, and 100 nm) were added in advance, and PPTN was used as a positive control. Subsequently, 1 μM P2Y14 receptor agonist UDPG was added, and after 4 h, the content of intracellular cAMP was measured using a cAMP Glo™ Assay kit (PROMEGA Co. Ltd., USA). The inhibition rate was calculated based on the cAMP content.

The test system of test [3] is IL-1β in the supernatant of the THP-1 cell culture medium. The experiment in a line: IL-1β ELISA in supernatant of LPS/ATP-stimulated THP-1 cell culture medium. Conditions: PPTN 5 μM, PMA-differentiated THP-1, LPS 100 ng/mL + ATP 5 mM, FIG. 5. The class given is cell-based, Human. How it is done: Human THP-1 cells were cultured in an RPMI-1640 culture medium (containing 10% fetal bovine serum, 100 U/mL penicillin, and 100 μg/mL streptomycin) and seeded into a culture plate at a density of 1×10^5 cells/well before the experiment. The cells were cultured at 37° C. with 95% 02 and 5% CO2 humidity. Before the experiment, PMA was added at 100 ng/mL to each well, and the cells were incubated for 24 h to induce the differentiation of the THP-1 cells into macrophages. Test compound 5 (2.5 μM, 5 μM, and 10 μM) and PPTN (5 μM) were added to the culture medium in advance for intervention. After 1 h, LPS at a final concentration of 100 ng/mL was added to the cells. After 3 h, ATP at a final concentration of 5 mM was added. After 1 h, the indexes were determined as follows:
The level of IL-1β in the supernatant of the cell culture medium was detected by an ELISA kit (Shenzhen NeoBioscience Technology Co., Ltd.), and the results are shown in FIG. 5.
For orientation: An ELISA detects its analyte on a solid surface through an enzyme-linked reagent.

Each structure is given as a SMILES string.

Usually inhibition stands for the change of the read-out against control, counted positive when it falls. Turning to `Cc1ccc(C(=O)Nc2cc(C(=O)O)sc2Oc2ccc(C)nc2)cc1` [Compound 5, 5-((6-methylpyridin-3-yl)oxy)-4-(4-methylbenzamido)thiophene-2-carboxylic acid], the “gene expression levels of inflammatory factors in mouse peritoneal fluids” value in test [1] is given as “down-regulate the gene expression levels of inflammatory factors to different degrees”. Moreover, in test [2], the inhibition at 0.1 µM was 99.4%.

Take `O=C(O)c1cc(-c2ccc(C3CCNCC3)cc2)c2ccc(-c3ccc(C(F)(F)F)cc3)cc2c1` [PPTN]: in test [3], the “level of IL-1β in the supernatant of the cell culture medium” value was “showed an expected effect”.

As for `Cc1ccc(Oc2sc(C(=O)O)cc2NC(=O)c2ccc(C#N)cc2)cn1` [Compound 15-8], the inhibition at 0.1 µM in test [2] came to 76.4%.
